Key:
Format in all cases: toxicity, cell-based
[1] = MMV: MTT Cytotoxicity Assay Day 3 pi, U87-CD4-CCR5 cells, % cell death @ 5mM compound; conditions: human, u87-cd4-ccr5, 5000 µM
[2] = MMV: MTT Cytotoxicity Assay Day 3 pi, U87-CD4-CXCR4 cells, % cell death @ 5mM compound; conditions: human, u87-cd4-cxcr4, 5000 µM
[3] = MMV: MTT Cytotoxicity Assay Day 7 pi of Assay #7 (compound washed out Day 1 pi), U87-CD4-CXCR4 cells, % cell death @ 5mM compound; conditions: human, u87-cd4-cxcr4, 5000 µM
[4] = MMV: MTT Cytotoxicity Assay Day 7 pi of Assay #6 (compound washed out Day 1 pi), U87-CD4-CCR5 cells, % cell death @ 5mM compound; conditions: human, u87-cd4-ccr5, 5000 µM
[5] = MMV: MTT Cytotoxicity Assay Day 7 pi of Assay #11 (NO washout), U87-CD4-CXCR4 cells, % cell death @ 5mM compound; conditions: human, u87-cd4-cxcr4, 5000 µM
[6] = MMV: MTT Cytotoxicity Assay Day 7 pi of Assay #10 (NO washout), U87-CD4-CCR5 cells, % cell death @ 5mM compound; conditions: human, u87-cd4-ccr5, 5000 µM

| Compound | % Cell Death [1] | % Cell Death [2] | % Cell Death [3] | % Cell Death [4] | % Cell Death [5] | % Cell Death [6] |
| --- | --- | --- | --- | --- | --- | --- |
| COc1ccc(C2c3ccc4ccccc4c3Oc3ncn(CCCN(C)C)c(=N)c32)cc1 (stereo not drawn) | 15 | 39 | -12 | -31 | -61 | -3 |
| Nc1nc(Nc2cccc(F)c2)nc2ccccc12 | 42 | 38 | -13 | -19 | 36 | 45 |
| Cc1sc(NC(=O)c2ccccc2)c(C(c2cccs2)N2CCN(c3ccccc3)CC2)c1C (stereo not drawn) | -1 | 45 | 4 | -19 | -15 | 95 |
| CCOC(=O)c1c(C)n(-c2ccccc2)c2ccc(OC(=O)c3cc(OC)c(OC)c(OC)c3)cc12 | -4 | 34 | 2 | -12 | -19 | 12 |
| COc1ccc(CCN2C(=O)c3[nH]nc(-c4cc(Cl)c(C)cc4O)c3C2c2ccccc2F)cc1 (stereo not drawn) | 19 | 32 | -18 | -35 | -26 | 47 |
| N#Cc1nc(Cc2cccc3ccccc23)oc1N1CCN(C(c2ccccc2)c2ccccc2)CC1 | 112 | 101 | 93 | 78 | -30 | 109 |
| O=C(NNc1cc(N2CCCC2)nc(N2CCCC2)n1)c1ccccc1 | 61 | 29 | 53 | 15 | 8 | 27 |
| COC(=O)c1ccc(Cl)c2c1C1C=CCC1C(c1cccc3ccccc13)N2 (stereo not drawn) | -6 | 40 | -20 | -5 | -34 | -21 |
| COc1ccc(C2c3ccc4ccccc4c3Oc3ncn(CCCn4ccnc4)c(=N)c32)cc1OC (stereo not drawn) | 39 | 38 | -25 | -22 | -30 | -6 |
| CN(N=O)C1=C(NC2CCCCC2)C(=O)c2ccccc2C1=O | 41 | 45 | 36 | -53 | 15 | 30 |
| O=C(CCc1ccccc1)c1ccccc1OCC(O)CN1CCCCC1 (stereo not drawn) | 53 | 44 | 77 | 12 | 93 | 136 |
| OC1=C2C(=Nc3ccccc3SC2c2ccccc2)c2ccccc21 (stereo not drawn) | 37 | 20 | 24 | -22 | -20 | -15 |
| CCOc1ccc(N2C(N)=NC(N)=NC2(C)C)cc1.Cl | 56 | 57 | 35 | 56 | -36 | 135 |
| COc1cccc(Nc2nc(N)c3ccccc3n2)c1.Cl | -31 | 22 | -5 | 13 | -77 | -2 |
| CCCCCCc1cc2cc(-c3csc(C=Cc4ccccc4)n3)c(=O)oc2cc1O | 35 | 41 | -39 | -23 | -36 | 24 |
| CCOc1ccc(CN2CCN(CC(O)COc3ccc(OCC(O)CN4CCN(Cc5ccc(OCC)cc5)CC4)cc3)CC2)cc1 (stereo not drawn) | -5 | 50 | 21 | 65 | -7 | 115 |
| O=C(NC1CCN(Cc2ccccc2)CC1)c1cc(C(=O)NC2CCN(Cc3ccccc3)CC2)cc(C(=O)NC2CCN(Cc3ccccc3)CC2)c1 | 12 | 60 | 72 | 14 | 71 | 48 |
| COc1ccc(CCn2c(=N)c(C(=O)NCc3cccnc3)cc3c(=O)n4cccc(C)c4nc32)cc1 | 1 | 15 | 35 | 32 | 8 | 4 |
| COc1ccc(-c2cn3c(C(=O)Nc4ccccc4Cl)c(-c4ccccc4)c4c3n2CCCC4)cc1 | -20 | 35 | -5 | -4 | -35 | 30 |

| Compound | % Cell Death [1] | % Cell Death [2] | % Cell Death [3] | % Cell Death [4] | % Cell Death [5] | % Cell Death [6] |
| --- | --- | --- | --- | --- | --- | --- |
| CCOc1ccc2nc(C)cc(Nc3ccc(N(C)C)cc3)c2c1.Cl | -27 | 57 | 4 | -13 | 0 | 23 |
| Oc1ccc2ccccc2c1CNc1nc2ccccc2[nH]1 | 53 | 32 | -22 | -27 | 42 | 36 |
| O=C(Nc1ccc(-c2nc3cc(NC(=O)c4ccc(Cl)cc4)ccc3[nH]2)cc1)c1ccc(Cl)cc1 | -28 | 37 | -23 | -14 | -10 | -18 |
| OCCNc1nc(Nc2ccc(Cl)c(Cl)c2)nc2ccccc12 | 41 | 30 | -3 | -18 | -59 | 51 |
| COc1ccc(C(=O)C(CCC(CNC(C)(C)C)C(=O)c2ccc(OC)cc2)CNC(C)(C)C)cc1 (stereo not drawn) | 94 | 100 | 75 | 27 | 105 | 137 |
| CCOc1cc2c(cc1OCC)C(c1cc(Cl)ccc1O)NCC2 (stereo not drawn) | 20 | 42 | 3 | -26 | 21 | 17 |
| COc1cc(C(=O)ON=C(N)Cc2cccc3ccccc23)cc(OC)c1OC | 14 | 32 | 4 | -13 | -15 | 100 |
| CN1C=C(c2ccc3ccccc3n2)C(c2c[nH]c3ccccc23)c2ccccc21 (stereo not drawn) | 94 | 46 | 38 | 13 | 0 | 161 |
| Oc1c(C(Nc2ccccn2)c2cccc(Oc3ccccc3)c2)ccc2cccnc12 (stereo not drawn) | 113 | 101 | 97 | 91 | 106 | 139 |
| COc1cc(-c2nc(-c3ccccc3)c(-c3ccccc3)[nH]2)cc(OC)c1O | 104 | 52 | 84 | 88 | 105 | 120 |
| Cc1ccc(Nc2nc(N)c3ccccc3n2)cc1Cl | -34 | 36 | -9 | -17 | -31 | -2 |
| COc1cc(CNCCc2ccc(Cl)cc2)cc(OC)c1O | -11 | 35 | 11 | -15 | 91 | 18 |
| Cc1ccc2c(C)nc(Nc3nc(C)cc(-c4ccccc4)n3)nc2c1 | 107 | 99 | 97 | 98 | 104 | 114 |
| CCOc1ccc(Nc2ccnc3cc(Cl)ccc23)cc1 | 35 | 78 | 47 | 20 | -19 | 72 |
| COc1cc2c3cc1Oc1c(OC)c(OC)cc4c1C(Cc1ccc(O)c(c1)Oc1ccc(cc1)CC3N(C)CC2)N(C)CC4.Cl (stereo not drawn) | -12 | 36 | 32 | 3 | 83 | 43 |
| COc1ccc2sc(N(Cc3cccnc3)C(=O)c3ccc(C#N)cc3)nc2c1 | -25 | 29 | -25 | 2 | -31 | 2 |
| CN(C)c1ccc(N=Cc2ccc(N3CCOCC3)cc2)cc1 | 108 | 100 | 97 | 92 | 109 | 135 |
| CCOC(=O)C1=CN(C)C=C(C(=O)OCC)C1c1cc(Br)c(OCC)c(OC)c1 | 80 | 32 | 99 | 37 | 6 | 103 |
| CN1CCN(c2nc(Nc3ccc(O)cc3)nc3ccccc23)CC1.Cl | 11 | 32 | -23 | -8 | 110 | 43 |

Source: ChEMBL document CHEMBL3301472, “MMV Malaria Box HIV and cytotoxicity screening”
